Experimental data from US20110020312A1, “METHODS FOR TREATMENT OF METABOLIC DISORDERS USING EPIMETABOLIC SHIFTERS, MULTIDIMENSIONAL INTRACELLULAR MOLECULES, OR ENVIRONMENTAL INFLUENCERS” (priority 2009, published 2011).

Legend:
HK-2 cells = assay: Diabetes PCR array in cell model for diabetes (22 mM glucose); assay type: cell-based, human
Experimental: The HK-2 and HASMC cells are normally maintained in culture at 5.5 mM glucose, which is a concentration that corresponds to a range considered normal in human blood. However, in order to simulate a diabetic environment, both cell lines were subsequently maintained at 22 mM glucose, which corresponds to the range observed in human blood associated with chronic hyperglycemia. The cells were subsequently allowed to propagate over 3 passages so that the intracellular regulation processes were functionally adapted to mimic a diabetic state. The choice of cell line was based on the physiologic influence of diabetes on renal dysfunction and progression to end-stage renal disease (ESRD) in addition to the progressive pathophysiology of a compromised cardiovascular function.
The Diabetes PCR array (SABiosciences) offers a screen for 84 genes simultaneously.
A stringent analysis of the Real time PCR data of the HK-2 samples on the Diabetes Arrays (Cat # PAHS-023E, SABiosciences Frederick Md.) was made to exclude all results where gene regulation was not at least a two-fold regulation over HK-2 normal untreated cells with a p value of less than 0.05.

HepG2 cells = assay: Nexin assay for apoptosis, 24 h Q10; assay type: cell-based; details: 50 μM Q10, 24 hours
Source text: (§1) The 7AAD dye will enter into cells with permeabilized cell membranes; primarily those cells that are in late apoptosis. Annexin-V-PE is a dye that binds to Phosphotidyl serine, which is exposed on the outer surface of the plasma membrane in early apoptotic cells. The Nexin reagent thus can be used to differentiate between different populations of apoptotic cells in a flow cytometer.

PC-3 cells = assay: Nexin assay for apoptosis, 24 h Q10; assay type: cell-based; details: 50 μM and 100 μM Q10, 24 hours; increase less than in PaCa2
Source text: as §1

MCF-7 cells = assay: Nexin assay for apoptosis, 24 h Q10; assay type: cell-based; details: 50 μM and 100 μM Q10, 24 hours
Source text: as §1

[1] = test system: HAEC, MCF-7, HepG2 and PC-3 cell lines; assay: OCR and ECAR in other normal and cancer cell lines (data not shown); assay type: cell-based; details: absence and/or presence of stressors (hyperglycemia, hypoxia, lactic acid)
Experimental: A similar comparison of OCR and ECAR values (data not shown) were determined in numerous other normal and cancer cells lines, including: HAEC (normal human aortic endothelial cells), MCF-7 (breast cancer), HepG2 (liver cancer) and highly metastatic PC-3 (prostate cancer) cell lines. […] Thus, the overall effect of CoQ10 in the treatment of cancer, including cell death, is an downstream effect of its collective influence on proteomic, genomic, metabolomic outcomes in concert with shifting of the cellular bioenergetics from glycolysis to mitochondrial OXPHOS.

a variety of cell types = assay: Western blot analysis (Bcl-xL, Vimentin, oxidative phosphorylation and mitochondrial membrane proteins); assay type: cell-based; details: 50 or 100 μM Q10
Experimental: Approximately 50 μg of protein were assayed per sample by immunoblotting. All treatments were run in triplicate with controls. […] The primary antibodies were incubated overnight at 4 degrees C. in a 5% BSA and TBST solution. Secondary antibodies were incubated for one hour at 4 degrees. All antibodies were purchased from Cell Signaling Technology. Antibodies were used at a ratio of 1:1000, with the exception of PActin at a ratio of 1:5000. Blots were developed and results were quantified using the NIH Java based densitometer analysis software Image J. All blots were also probed for and normalized to their respective PActin expression.
The first experiment processed and evaluated by Western blot and 2-D gel electrophoresis was carried out on the skin cancer cell line SKMEL-28.
A variety of cell types were evaluated by Western blot analysis against an antibody for Bcl-xL (FIG. 14), an antibody for Vimentin (FIG. 15), a series of antibodies for mitochondrial oxidative phosphorylation function (FIGS. 16-21) and against a series of antibodies related to mitochondrial membrane integrity (FIGS. 22-27).

COC1=C(OC)C(=O)C(C/C=C(\C)CC/C=C(\C)CC/C=C(\C)CC/C=C(\C)CC/C=C(\C)CC/C=C(\C)CC/C=C(\C)CC/C=C(\C)CC/C=C(\C)CCC=C(C)C)=C(C)C1=O [Q10, Coenzyme Q10]
CEACAM1 RNA transcript (HK-2 cells; HK2(H) cells, particularly with 100 μM Coenzyme Q10): highly upregulated | insulin receptor (INSR) expression (HK-2 cells; diabetic HK-2 cells): altered | increase of gated population in late and early apoptotic stages (HepG2 cells): about 20% | early and late apoptotic population (PC-3 cells): increase in both early and late apoptotic population | early/late apoptotic population (MCF-7 cells): increase only in early apoptotic population | OCR and ECAR values [1]: shift in OCR and ECAR values representative of values observed in a normal cells | levels of examined proteins (Western blot) (a variety of cell types): upregulated or downregulated
